How the values were obtained:
p38 MAPK = p38 MAPK activity after H2O2 oxidative stress in β-TC3 cells; format: cell-based, murine
Procedure: Murine insulinoma beta-TC3 (β-TC3) cells were used as a surrogate source of β-cells in vitro. The β-TC3 cells were incubated for 48 hours, and then subdivided into four (4) groups, with three (3) series of cell cultures per group repeated in triplicate. Group 1 were sham cultured β-TC3 cells; group 2 cells were subdivided into those pre-treated with 0.5 mM isoflurane for 15 minutes or 60 minutes without H2O2, followed by an isoflurane washout; group 3 cells were exposed only to 0.3 mM H2O2 for 3 hours; group 4 cells were pre-treated with isoflurane for 15 minutes or 60 minutes, as in group 2, followed by an isoflurane washout and exposure to 0.3 mM H2O2 for 3 hours. FIG. 26 is illustrative of the experimental design for the present study.

[1] = system: Murine insulinoma beta-TC3 (β-TC3) cells; assay: Anesthetic preconditioning against H2O2 oxidative stress, cell viability by FACS; format: cell-based
Procedure: Murine insulinoma beta-TC3 (β-TC3) cells were used as a surrogate source of β-cells in vitro. […] FIG. 26 is illustrative of the experimental design for the present study. Cells were then harvested and assayed for viability via FACS analysis (Live/Dead far red, and TMRE, mitochondrial fluorescent dye to detect apoptosis). Data was analyzed using ANOVA with post hoc Tukey for multiple comparisons.

[2] = Isoflurane concentration in stored emulsion measured by weight; format: physicochemical; details: open container, about 21° C.
Procedure: A standard curve for determining isoflurane concentration was generated based upon 1 mL mixtures of a base solution, i.e., 2% w/v surfactant plus PBS or HBSS; 10% v/v FC-43; and, various known v/v % isoflurane concentrations. A 1 mL aliquot of each of these mixtures was weighed and compared to its expected weight based on the density of each component, and a predicted density of each mixture. The predicted or expected density of each mixture was determined by the following equation: ρexpected=ν%A*ρA+ν%BρB+ν%CρC
where ρ is the density, and A, B, C are the surfactant solution, PCF or FC-43, and isoflurane, respectively. FIG. 8 is a standard curve generated in accordance with the procedure of this example for the determination of isoflurane concentration by weight. The measured values were compared to the theoretical values, or ρexpected, and a high degree of correlation, R^2>0.99, was observed, as illustrated in FIG. 9.
From the standard curve generated of the mixtures, the content of isoflurane in any emulsion can be determined by weighing a known volume, for example, a 1 mL aliquot. and tabulating the known portions of the weight, e.g., the volume percentages of the base solution and PCF, i.e., FC-43, and calculating the unknown volume by dividing the remaining weight by the density of pure isoflurane. […]

[3] = Isoflurane concentration and loss over time measured by ATR-FTIR (1300-1260 cm^-1); format: physicochemical; details: exposed to air
Procedure: In accordance with the present example, ATR-FTIR spectra were recorded on a PerkinElmer Spectrum 100 FTIR spectrometer equipped with a KBr beam splitter, 1 bounce Universal Di/ZnSe ATR sampling accessory, and electronically, temperature-stabilized fast recovery deuterated triglycine sulfate detector. The spectra generated are an average of four scans at a resolution of 4 cm^−1. Emulsion samples of 50 μL each were obtained from each of the emulsions described below, and the emulsion samples were measured by covering the measurement surface. Standard curves were generated by manufacturing emulsions of known volume percentage isoflurane by gravimetric determination, performing ATR-FTIR measurements and then, taking area under the curve (“AUC”) determinations of peaks in the region specific to fluorine bond vibration (1300-1000 cm^−1). […]
From these peaks, measurements of the area under the curve (“AUC”) for each of the two spectral regions, once again, 1300-1260 cm^−1 and 1225-1011 cm^−1, were used to generate standard curves of isoflurane concentration. […] The two curves were generated to evaluate the possibility of isoflurane loss during the emulsification process, as a comparison between the two standard curves would allow for assessment of error in emulsion manufacture and allow for more accurate quantification. […]

Row | Structure (SMILES) | p38 MAPK activity (p38 MAPK; treatment by H2O2 alone) | β-TC3 cell survival compared to controls ([1]; 0.3 mM H2O2 for 3 hours alone) [%] | time to essentially complete evaporation [2] | fraction of sample evaporated ([2]; after about 0.2 hours) [%] | time to complete evaporation on ATR-FTIR crystal [3] [s] | p38 MAPK activity (p38 MAPK; isoflurane pretreatment, compared to cells exposed to H2O2 alone) | β-TC3 cell survival compared to controls ([1]; 0.5 mM isoflurane pretreatment 15 minutes, washout, then 0.3 mM H2O2 for 3 hours) [%] | β-TC3 cell survival compared to controls ([1]; 0.5 mM isoflurane pretreatment 60 minutes, washout, then 0.3 mM H2O2 for 3 hours) [%]
1 | OO [H2O2, hydrogen peroxide] | increased protein kinase activity | 44±13 | – | – | – | – | – | –
2 | FC(F)OC(Cl)C(F)(F)F (centres unmarked) [isoflurane] | – | – | over 0.5 hours | ~50 | ≤ 10 | significantly decreased p38 MAPK activity | 98±2 | 105±0
